The values that follow come from ChEMBL document CHEMBL6120940, “Discovery of N-Aryl-N'-[4-(aryloxy)cyclohexyl]squaramide-Based Inhibitors of LXR/SREBP-1c Signaling Pathway Ameliorating Steatotic Liver Disease: Navigating the Role of SIRT6 Activation” (J Med Chem, 2024).

The term inhibition denotes the drop in the measured response relative to a control, in per cent.

Assay [1] is described as follows: Downregulation of SREBP-1c mRNA expression in human HepG2 cells at 10 uM pretreated with compound for 30 mins followed by T0901317 addition and measured after 12 hrs by RT-qPCR analysis relative to control. Conditions: time 12.5 hrs. In kind it is functional. Background: In qPCR the cycle at which signal appears reflects the starting amount.
For another assay, the system named is HepG2. In words: Cytotoxicity against human HepG2 cells at 10 uM measured after 24 hrs by CCK-8 method relative to control. In kind it is functional. Background: Tetrazolium assays rely on reduction of a dye to a coloured formazan, in cell work by metabolically active cells.
For assay [2], the target named is T1, Sterol regulatory element-binding protein 1 (Homo sapiens) (UniProt P36956).
T1 sequence (whole entry): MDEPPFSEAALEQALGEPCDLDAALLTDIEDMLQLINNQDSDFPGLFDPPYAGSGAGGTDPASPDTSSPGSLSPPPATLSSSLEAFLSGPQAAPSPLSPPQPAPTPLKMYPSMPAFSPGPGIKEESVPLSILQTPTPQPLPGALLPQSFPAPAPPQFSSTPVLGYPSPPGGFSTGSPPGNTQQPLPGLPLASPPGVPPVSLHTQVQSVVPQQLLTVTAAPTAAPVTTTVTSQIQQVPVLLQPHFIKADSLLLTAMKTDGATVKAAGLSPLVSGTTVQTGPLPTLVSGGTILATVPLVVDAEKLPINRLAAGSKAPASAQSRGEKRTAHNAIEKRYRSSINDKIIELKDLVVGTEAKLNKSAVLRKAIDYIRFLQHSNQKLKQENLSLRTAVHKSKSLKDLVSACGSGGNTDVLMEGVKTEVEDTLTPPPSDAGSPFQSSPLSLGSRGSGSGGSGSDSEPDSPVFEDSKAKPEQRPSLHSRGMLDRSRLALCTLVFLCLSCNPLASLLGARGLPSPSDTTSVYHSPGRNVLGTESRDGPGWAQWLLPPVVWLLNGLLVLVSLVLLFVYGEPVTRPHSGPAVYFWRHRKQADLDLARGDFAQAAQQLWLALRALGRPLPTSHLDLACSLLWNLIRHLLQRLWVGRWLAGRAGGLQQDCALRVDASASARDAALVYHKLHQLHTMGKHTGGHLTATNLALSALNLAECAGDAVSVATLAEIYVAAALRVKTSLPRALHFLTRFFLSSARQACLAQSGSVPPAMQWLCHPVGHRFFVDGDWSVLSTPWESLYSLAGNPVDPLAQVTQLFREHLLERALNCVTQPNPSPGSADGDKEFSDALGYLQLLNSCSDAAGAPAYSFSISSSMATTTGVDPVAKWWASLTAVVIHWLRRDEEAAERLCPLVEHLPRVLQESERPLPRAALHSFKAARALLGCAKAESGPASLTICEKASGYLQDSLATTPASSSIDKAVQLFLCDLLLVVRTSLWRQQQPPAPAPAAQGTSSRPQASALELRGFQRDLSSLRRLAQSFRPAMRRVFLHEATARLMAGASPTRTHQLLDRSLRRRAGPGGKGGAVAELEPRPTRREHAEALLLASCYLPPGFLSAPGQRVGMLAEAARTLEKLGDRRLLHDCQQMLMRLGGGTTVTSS
In words: Inhibition of SREBP-1c transcriptional activity in human HepG2 cells expressing LXRalpha/RXRalpha assessed as reduction in SRE-luciferase level at 10 uM pretreated with compound for 30 mins followed by T0901317 addition and measured after 12 hrs by Dual-Glo luciferase assay relative to control. In kind it is cell-based. Conditions: time 12.5 hrs.

Regarding `CS(=O)(=O)c1ccc(O[C@H]2CC[C@H](Nc3c(Nc4ccc(F)cc4)c(=O)c3=O)CC2)cc1`, the Activity is 24% in assay [1] and 91.3% in the assay on HepG2.

Take `COc1cccc(Nc2c(N[C@H]3CC[C@H](Oc4ccc(C#N)cc4)CC3)c(=O)c2=O)c1`: the Activity was found to be 60.6% in assay [1] and 91.4% in the assay on HepG2. Moreover, the inhibition in assay [2] came out at 51.1%.

Regarding `N#Cc1ccc(O[C@H]2CC[C@H](Nc3c(Nc4ccc(Cl)cc4)c(=O)c3=O)CC2)cc1`, the Activity worked out at 36.9% in assay [1] and 96.2% with HepG2. Also, the inhibition in assay [2] came out at 87.1%.

For `CS(=O)(=O)c1ccc(O[C@H]2CC[C@H](Nc3c(Nc4ccc(Cl)cc4)c(=O)c3=O)CC2)cc1`, the Activity in assay [1] was found to be 47.9%; in the assay with HepG2, 90.7%. The inhibition in assay [2] was 107%.

`N#Cc1ccc(O[C@H]2CC[C@H](Nc3c(Nc4ccccc4)c(=O)c3=O)CC2)cc1`: the results for the Activity (in assay [1]; in the assay on HepG2) were 84.8% and 90.6%, respectively. In assay [2], the inhibition came to 80.1%.

As to `COc1ccc(Nc2c(N[C@H]3CC[C@H](Oc4ccc(C(F)(F)F)cc4)CC3)c(=O)c2=O)cc1`, the values for the Activity (in assay [1]; in the assay on HepG2) were 28.7% and 94.8%, respectively. Moreover, in assay [2], the inhibition is 35.6%.

`N#Cc1ccc(O[C@H]2CC[C@H](Nc3c(Nc4ccc(F)cc4)c(=O)c3=O)CC2)cc1`: the Activity in assay [1] is 87.4%; with HepG2, 77%. Also, the inhibition in assay [2] is 46.2%.

As to `COc1cccc(Nc2c(N[C@H]3CC[C@H](Oc4ccc(S(C)(=O)=O)cc4)CC3)c(=O)c2=O)c1`, the Activity was 62.5% in assay [1] and 100.4% in the assay with HepG2. Moreover, the inhibition in assay [2] turned out to be 51.1%.

As for `O=c1c(Nc2ccc(Cl)cc2)c(N[C@H]2CC[C@H](Oc3ccc([N+](=O)[O-])cc3)CC2)c1=O`, the figures for the Activity (in assay [1]; with HepG2) were 49.8% and 78.6%, respectively. Further, the inhibition in assay [2] turned out to be 24.3%.

Regarding `CS(=O)(=O)c1ccc(O[C@H]2CC[C@H](Nc3c(Nc4ccccc4)c(=O)c3=O)CC2)cc1`, the Activity in assay [1] is 76.1%; in the assay on HepG2, 76.2%. In assay [2], the inhibition came to 76.2%.

In the case of `COc1ccc(Nc2c(N[C@H]3CC[C@H](Oc4ccc(C#N)cc4)CC3)c(=O)c2=O)cc1`, the Activity in assay [1] turned out to be 70.6%; with HepG2, 88.3%. The inhibition in assay [2] was determined as 35.7%.

For the molecule `COC(=O)c1ccc(Nc2c(N[C@H]3CC[C@H](Oc4ccc([N+](=O)[O-])cc4)CC3)c(=O)c2=O)cc1`, the results for the Activity (in assay [1]; in the assay on HepG2) were 26.7% and 91%, respectively. For the same molecule, the inhibition in assay [2] stood at 41.7%.

Regarding `COc1cccc(Nc2c(N[C@H]3CC[C@H](Oc4ccc(C(F)(F)F)cc4)CC3)c(=O)c2=O)c1`, the results for the Activity (in assay [1]; with HepG2) were 69.9% and 97.4%, respectively. In assay [2], the inhibition is 41.5%.

Take `COC(=O)c1ccc(Nc2c(N[C@H]3CC[C@H](Oc4ccc(S(C)(=O)=O)cc4)CC3)c(=O)c2=O)cc1`: the Activity in assay [1] is 22.3%; with HepG2 it was 90.1%. In addition, in assay [2], the inhibition is 40.5%.

With `O=c1c(Nc2ccccc2)c(N[C@H]2CC[C@H](Oc3ccc([N+](=O)[O-])cc3)CC2)c1=O`, the Activity in assay [1] is on record as 82.7%; in the assay on HepG2, 102.8%. Moreover, the inhibition in assay [2] was 59.6%.

For the molecule `COc1ccccc1Nc1c(N[C@H]2CC[C@H](Oc3ccc(C(F)(F)F)cc3)CC2)c(=O)c1=O`, the Activity is 30% in assay [1] and 77.8% in the assay with HepG2. Also, the inhibition in assay [2] came out at 21.5%.

With `O=C(Nc1ccc(Br)cc1)Nc1cccnc1`, the Activity in assay [1] was 56.6%.

With `COc1ccc(Nc2c(N[C@H]3CC[C@H](Oc4ccc([N+](=O)[O-])cc4)CC3)c(=O)c2=O)cc1`, the Activity in assay [1] came out at 34.3%; in the assay with HepG2, 88.4%. In assay [2], the inhibition stood at 57.6%.

For the molecule `CC(C)(C)c1ccc(Nc2c(N[C@H]3CC[C@H](Oc4ccc(C(F)(F)F)cc4)CC3)c(=O)c2=O)cc1`, the values for the Activity (in assay [1]; in the assay on HepG2) were 68% and 95.9%, respectively. Also, in assay [2], the inhibition was 32.6%.

Take `COc1ccc(Nc2c(N[C@H]3CC[C@H](Oc4ccc(S(C)(=O)=O)cc4)CC3)c(=O)c2=O)cc1`: the Activity in assay [1] is given as 34.2%; in the assay with HepG2 it was 93.9%. In addition, the inhibition in assay [2] was determined as 53.3%.

Turning to `O=c1c(Nc2ccc(Cl)cc2)c(N[C@H]2CC[C@H](Oc3ccc(C(F)(F)F)cc3)CC2)c1=O`, the results for the Activity (in assay [1]; with HepG2) were 103.6% and 88.4%, respectively. In assay [2], the inhibition was determined as 39.1%.

For `CC(C)(C)c1ccc(Nc2c(N[C@H]3CC[C@H](Oc4ccc([N+](=O)[O-])cc4)CC3)c(=O)c2=O)cc1`, the Activity in assay [1] is on record as 50.4%. Further, the inhibition in assay [2] amounted to 42.8%.

On to `COc1cccc(Nc2c(N[C@H]3CC[C@H](Oc4ccc([N+](=O)[O-])cc4)CC3)c(=O)c2=O)c1`, for which the Activity amounted to 64.3% in assay [1] and 87.2% in the assay with HepG2. Besides, the inhibition in assay [2] was 18%.

On to `O=c1c(Nc2ccc(F)cc2)c(N[C@H]2CC[C@H](Oc3ccc(C(F)(F)F)cc3)CC2)c1=O`, for which the Activity in assay [1] was determined as 59.3%; in the assay with HepG2 it was 87.8%. Further, the inhibition in assay [2] was 40%.

Regarding `COC(=O)c1ccc(Nc2c(N[C@H]3CC[C@H](Oc4ccc(C(F)(F)F)cc4)CC3)c(=O)c2=O)cc1`, the Activity is recorded as 91.6% in assay [1] and 104.7% in the assay with HepG2. For the same molecule, the inhibition in assay [2] amounted to 47.5%.

Consider `CC(C)(C)c1ccc(Nc2c(N[C@H]3CC[C@H](Oc4ccc(S(C)(=O)=O)cc4)CC3)c(=O)c2=O)cc1`, for which the Activity in assay [1] is listed as 68.5%; in the assay on HepG2 it was 95%. For the same molecule, in assay [2], the inhibition was 26.9%.

`COc1ccccc1Nc1c(N[C@H]2CC[C@H](Oc3ccc(S(C)(=O)=O)cc3)CC2)c(=O)c1=O`: the Activity in assay [1] was 34.4%; in the assay with HepG2 it was 962%. In assay [2], the inhibition worked out at 22.2%.

Regarding `CC(C)(C)c1ccc(Nc2c(N[C@H]3CC[C@H](Oc4ccc(C#N)cc4)CC3)c(=O)c2=O)cc1`, the Activity in assay [1] worked out at 61.5%; in the assay with HepG2, 87.4%. The inhibition in assay [2] stood at 30.1%.

In the case of `O=c1c(Nc2ccc(F)cc2)c(N[C@H]2CC[C@H](Oc3ccc([N+](=O)[O-])cc3)CC2)c1=O`, the figures for the Activity (in assay [1]; in the assay with HepG2) were 52.9% and 76.7%, respectively. For the same molecule, in assay [2], the inhibition was found to be 23.9%.

For `O=c1c(Nc2ccccc2)c(N[C@H]2CC[C@H](Oc3ccc(C(F)(F)F)cc3)CC2)c1=O`, the Activity in assay [1] came out at 77%; in the assay on HepG2, 93.2%. Besides, in assay [2], the inhibition is 70.8%.

For `COC(=O)c1ccc(Nc2c(N[C@H]3CC[C@H](Oc4ccc(C#N)cc4)CC3)c(=O)c2=O)cc1`, the Activity is 65.9% in assay [1] and 99.1% with HepG2. In addition, the inhibition in assay [2] was 50.4%.
